Experiments:
RoxAXsp = molecular target: T1, RoxAXsp (Xanthomonas sp. 35Y, UniProt Q7X0P3); test: HPLC of polyisoprene cleavage products; format: biochemical; conditions: poly(cis-1,4-isoprene) latex, oxygen; 23 °C
T1 construct: gene roxA; purified as described previously; c-type dihaem

LcpRr = molecular target: T2, LcpRr (Rhodococcus rhodochrous, UniProt A0A165QBG6); test: HPLC product assay (C35 peak), polyisoprene latex; conditions: read-out: % inhibition at 1 mM
T2 sequence (A0A165QBG6 31-408): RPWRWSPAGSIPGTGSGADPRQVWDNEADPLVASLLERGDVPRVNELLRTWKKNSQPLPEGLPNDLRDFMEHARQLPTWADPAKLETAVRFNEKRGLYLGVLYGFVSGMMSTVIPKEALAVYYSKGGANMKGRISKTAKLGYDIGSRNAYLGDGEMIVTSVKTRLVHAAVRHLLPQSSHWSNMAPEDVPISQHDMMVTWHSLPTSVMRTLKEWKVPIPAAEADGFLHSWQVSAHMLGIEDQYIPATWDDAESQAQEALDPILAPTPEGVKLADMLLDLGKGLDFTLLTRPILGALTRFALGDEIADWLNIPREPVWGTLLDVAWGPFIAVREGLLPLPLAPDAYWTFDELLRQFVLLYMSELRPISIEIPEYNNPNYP

T1 sequence (Q7X0P3 entry or part of it): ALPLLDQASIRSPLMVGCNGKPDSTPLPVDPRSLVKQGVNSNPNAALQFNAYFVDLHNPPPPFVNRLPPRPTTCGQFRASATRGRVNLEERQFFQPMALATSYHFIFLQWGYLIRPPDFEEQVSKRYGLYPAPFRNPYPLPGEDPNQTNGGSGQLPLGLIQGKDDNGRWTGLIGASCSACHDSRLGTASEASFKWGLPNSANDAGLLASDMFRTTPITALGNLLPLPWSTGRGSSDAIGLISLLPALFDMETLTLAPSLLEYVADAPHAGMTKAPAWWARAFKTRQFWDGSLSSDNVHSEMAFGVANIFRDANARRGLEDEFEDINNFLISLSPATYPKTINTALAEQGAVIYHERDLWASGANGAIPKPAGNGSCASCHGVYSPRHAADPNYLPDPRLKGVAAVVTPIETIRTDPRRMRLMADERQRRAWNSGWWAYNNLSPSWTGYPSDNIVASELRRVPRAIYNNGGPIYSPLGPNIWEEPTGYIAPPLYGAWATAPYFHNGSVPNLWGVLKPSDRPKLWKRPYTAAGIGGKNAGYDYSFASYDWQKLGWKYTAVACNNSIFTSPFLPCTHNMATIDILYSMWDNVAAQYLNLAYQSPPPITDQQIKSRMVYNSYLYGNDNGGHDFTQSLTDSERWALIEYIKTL

CC(=O)CCC=C(C)CCC=C(C)CCC=O [ODTD, 12-oxo-4,8-dimethyl-trideca-4,8-diene-1-al]
HPLC of polyisoprene cleavage products (RoxAXsp): ODTD was the main cleavage product of RoxAXsp

CCN(CC)C(=S)S [diethyl dithiocarbamate]
inhibition at 1000 µM (LcpRr): 82%
